Patent US20230183219A1, “CONDENSED SUBSTITUTED HYDROPYRROLES AS ANTAGONISTS OF THE MUSCARINIC ACETYLCHOLINE RECEPTOR M4” (Vanderbilt University, priority 2020, published 2023)

Target: T1, Human M4 (Homo sapiens, UniProt P08173)
T1 construct: Human or rat M4 cDNA, along with the chimeric G protein Gqi5, were transfected into Chinese hamster ovary (CHO-K1) cells; expressed in transfected cells; host or cells: CHO-K1 (Chinese hamster ovary, ATCC), stably co-expressing Gqi5
T1 sequence (P08173 1-479): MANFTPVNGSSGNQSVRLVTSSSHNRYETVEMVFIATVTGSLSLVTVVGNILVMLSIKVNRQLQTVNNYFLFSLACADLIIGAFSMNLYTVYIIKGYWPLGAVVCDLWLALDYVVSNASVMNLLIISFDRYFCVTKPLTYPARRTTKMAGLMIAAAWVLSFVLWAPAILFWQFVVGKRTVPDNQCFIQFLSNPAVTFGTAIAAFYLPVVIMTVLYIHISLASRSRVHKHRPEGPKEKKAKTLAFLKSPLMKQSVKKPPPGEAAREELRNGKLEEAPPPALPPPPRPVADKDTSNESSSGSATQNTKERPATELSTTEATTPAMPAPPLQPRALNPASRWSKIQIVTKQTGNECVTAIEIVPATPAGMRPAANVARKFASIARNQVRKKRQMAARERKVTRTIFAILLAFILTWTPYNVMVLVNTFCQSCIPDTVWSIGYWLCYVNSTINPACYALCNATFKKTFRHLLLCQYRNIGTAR
Experiment: mAChR M4 cell-based functional assay (calcium flux, decrease of EC80 acetylcholine response)
Conditions: for remaining activity at 30 µM: read-out: Human M4 Emin; for IC50: M4/Gqi5/CHO-K1 cells, decrease of response to EC80 acetylcholine
Description: Human or rat M4 cDNA, along with the chimeric G protein Gqi5, were transfected into Chinese hamster ovary (CHO-K1) cells purchased from the American Type Culture Collection using Lipofectamine2000. M4/Gqi5/CHO cells were grown in Ham's F-12 medium containing 10% heat-inactivated fetal bovine serum (FBS), 20 mM HEPES, 500 μg/mL G418 sulfate, and 200 μg/mL Hygromycin B.
For high throughput measurement of agonist-evoked increases in intracellular calcium, CHO-K1 cells stably expressing muscarinic receptors were plated in growth medium lacking G418 and hygromycin at 15,000 cells/20 μL/well in Greiner 384-well black-walled, tissue culture (TC)-treated, clear-bottom plates (VWR). Cells were incubated overnight at 37° C. and 5% CO2. The next day, cells were washed using an ELX 405 (BioTek) with assay buffer; the final volume was then aspirated to 20 μL. Next, 20 μL of a 2.3 μM stock of Fluo-4/acetoxymethyl ester (Invitrogen, Carlsbad, Calif.), prepared as a 2.3 mM stock in DMSO and mixed in a 1:1 ratio with 10% (w/v) Pluronic F-127 and diluted in assay buffer, was added to the wells and the cell plates were incubated for 50 min at 37° C. and 5% CO2. Dye was removed by washing with the ELX 405 and the final volume was aspirated to 20 μL. Compound master plates were formatted in a 10 point concentration-response curve (CRC) format (1:3 dilutions) in 100% DMSO with a starting concentration of 10 or 1 mM using a BRAVO liquid handler (Agilent). Test compound CRCs were then transferred to daughter plates (240 nL) using the Echo acoustic plate reformatter (Labcyte, Sunnyvale, Calif.) and then diluted into assay buffer (40 μL) to a 2×stock using a Thermo Fisher Combi (Thermo Fisher Scientific, Waltham, Mass.).
Calcium flux was measured using the Functional Drug Screening System (FDSS) 6000 or 7000 (Hamamatsu Corporation, Tokyo, Japan) as an increase in the fluorescent static ratio. Compounds were applied to cells (20 μL, 2×) using the automated system of the FDSS at 2 seconds into the protocol and the data were collected at 1 Hz. At 143 s, 10 μL of an EC20 concentration of the muscarinic receptor agonist acetylcholine was added (5×), followed by the addition of 12 μL of an EC80 concentration of acetylcholine at the 268 s time point (5×). Agonist activity was analyzed as a concentration-dependent increase in calcium mobilization upon compound addition. Positive allosteric modulator activity was analyzed as a concentration-dependent increase in the EC20 acetylcholine response. Antagonist activity was analyzed as a concentration-dependent decrease in the EC80 acetylcholine response; for the purposes of the tables herein, an IC50 (inhibitory concentration 50) was calculated as a concentration-dependent decrease of the response elicited by an EC80 concentration of acetylcholine. Concentration-response curves were generated using a four-parameter logistical equation in XLFit curve fitting software (IDBS, Bridgewater, N.J.) for Excel (Microsoft, Redmond, Wash.) or Prism (GraphPad Software, Inc., San Diego, Calif.) or the Dotmatics software platform (Dotmatics, Bishop's Stortford, UK).
Compounds were synthesized as described above. Activity (IC50 and Emin) was determined in the mAChR M4 cell-based functional assay as described above and the data are shown in Table 2.

## CCOc1ccc(-c2cc(C(F)(F)F)c(N[C@H]3C[C@@H]4CN(CC5CCOCC5)C[C@@H]4C3)nn2)c(F)c1F [Example 56, (3aR,5s,6aS)-N-(6-(4-ethoxy-2,3-difluorophenyl)-4-(trifluoro-methyl)pyridazin-3-yl)-2-((tetrahydro-2H-pyran-4-yl)methyl)octahydro-cyclopenta[c]pyrrol-5-amine]
% ACh maximum at 30 μM
  remaining activity at 30 µM: 3%
  IC50: 234 nM

## Fc1cccc(-c2cc(C(F)(F)F)c(N[C@H]3C[C@@H]4CN(Cc5ccccn5)C[C@@H]4C3)nn2)c1 [Example 105, (3aR,5s,6aS)-N-(6-(3-fluorophenyl)-4-(trifluoro-methyl)pyridazin-3-yl)-2-(pyridin-2-ylmethyl)octahydro-cyclopenta[c]pyrrol-5-amine]
% ACh maximum at 30 μM
  remaining activity at 30 µM: 2%
  IC50: 467 nM

## N#Cc1cccc(-c2cc(C(F)(F)F)c(N[C@H]3C[C@@H]4CN(CC5CCOCC5)C[C@@H]4C3)nn2)c1F [Example 60, 2-fluoro-3-(6-(((3aR,5s,6aS)-2-((tetrahydro-2H-pyran-4-yl)methyl)octahydro-cyclopenta[c]pyrrol-5-yl)amino)-5-(trifluoro-methyl)pyridazin-3-yl)benzonitrile]
% ACh maximum at 30 μM
  remaining activity at 30 µM: 4%
  IC50: 232 nM

## Cn1cc2cc(-c3cc(C(F)(F)F)c(N[C@H]4C[C@@H]5CN(C[C@H]6CCOC6)C[C@@H]5C4)nn3)ccc2n1 [Example 33, (3aR,5s,6aS)-N-(6-(2-methyl-2H-indazol-5-yl)-4-(trifluoro-methyl)pyridazin-3-yl)-2-(((R)-tetrahydrofuran-3-yl)methyl)octahydro-cyclopenta[c]pyrrol-5-amine]
% ACh maximum at 30 μM
  remaining activity at 30 µM: 6%
  IC50: 188 nM

## Cc1ccc(F)cc1-c1cc(C(F)(F)F)c(N[C@H]2C[C@@H]3CN(C[C@@H]4CCOC4)C[C@@H]3C2)nn1 [Example 30, (3aR,5s,6aS)-N-(6-(5-fluoro-2-methylphenyl)-4-(trifluoromethyl)pyridazin-3-yl)-2-(((S)-tetrahydrofuran-3-yl)methyl)octahydro-cyclopenta[c]pyrrol-5-amine]
% ACh maximum at 30 μM
  remaining activity at 30 µM: 4%
  IC50: 55.6 nM

## Cn1cc2cc(-c3cc(C(F)(F)F)c(N[C@H]4C[C@@H]5CN(C[C@@H]6COCCO6)C[C@@H]5C4)nn3)ccc2n1 [Example 35, (3aR,5s,6aS)-2-(((R)-1,4-dioxan-2-yl)methyl)-N-(6-(2-methyl-2H-indazol-5-yl)-4-(trifluoromethyl)pyridazin-3-yl)octahydro-cyclopenta[c]pyrrol-5-amine]
% ACh maximum at 30 μM
  remaining activity at 30 µM: 6%
  IC50: 147 nM

## Cc1ccc(F)cc1-c1cc(C#N)c(N[C@H]2C[C@@H]3CN(CC4CCOCC4)C[C@@H]3C2)nn1 [Example 146, 6-(5-fluoro-2-methylphenyl)-3-(((3aR,5s,6aS)-2-((tetrahydro-2H-pyran-4-yl)methyl)octahydro-cyclopenta[c]pyrrol-5-yl)amino)pyridazine-4-carbonitrile]
% ACh maximum at 30 μM
  remaining activity at 30 µM: 6%
  IC50: 15.6 nM

## [2H][C@@]1(Oc2cc(C(F)(F)F)c(-c3cc(F)ccc3C)nn2)C[C@H]2CN(CC3CCOCC3)C[C@H]2C1 [Example 133, (3aR,5s,6aS)-5-((6-(5-fluoro-2-methylphenyl)-5-(trifluoromethyl)pyridazin-3-yl)oxy)-2-((tetrahydro-2H-pyran-4-yl)methyl)octahydro-cyclopenta[c]pyrrole-5-d]
% ACh maximum at 30 μM
  remaining activity at 30 µM: 3%
  IC50: 217 nM

## FC1(F)CCCN(c2cc(C(F)(F)F)c(N[C@H]3C[C@@H]4CN(CC5CCOCC5)C[C@@H]4C3)nn2)C1 [Example 138, (3aR,5s,6aS)-N-(6-(3,3-difluoro-piperidin-1-yl)-4-(trifluoro-methyl)pyridazin-3-yl)-2-((tetrahydro-2H-pyran-4-yl)methyl)octahydro-cyclopenta[c]pyrrol-5-amine]
% ACh maximum at 30 μM
  remaining activity at 30 µM: 2%
  IC50: 21.2 nM

## [2H]C([2H])([C@H]1CCCCO1)N1C[C@H]2C[C@H](Nc3nnc(-c4cc(C)ccc4C)cc3C(F)(F)F)C[C@H]2C1 [Example 114, (3aR,5s,6aS)-N-(6-(2,5-dimethylphenyl)-4-(trifluoro-methyl)pyridazin-3-yl)-2-(((R)-tetrahydro-2H-pyran-2-yl)methyl-d2)octahydro-cyclopenta[c]pyrrol-5-amine]
% ACh maximum at 30 μM
  remaining activity at 30 µM: 3%
  IC50: 235 nM

## Cn1cc2cc(-c3cc(C(F)(F)F)c(N[C@H]4C[C@@H]5CN(CC6CCCOC6)C[C@@H]5C4)nn3)ccc2n1 (single isomer, unassigned) [Example 37]
% ACh maximum at 30 μM
  Human M4 Emin: 5%
  IC50: 76.1 nM

## Cc1ccc(F)cc1-c1cc(C(F)(F)F)c(N[C@H]2C[C@@H]3CN(C[C@@H]4CC5CCC4O5)C[C@@H]3C2)nn1 (stereo partly drawn) [Example 24, (3aR,5s,6aS)-2-(((2S)-7-oxabicyclo[2.2.1]heptan-2-yl)methyl)-N-(6-(5-fluoro-2-methylphenyl)-4-(trifluoromethyl)pyridazin-3-yl)octahydro-cyclopenta[c]pyrrol-5-amine]
% ACh maximum at 30 μM
  remaining activity at 30 µM: 3%
  IC50: 7 nM

## COc1ccc(F)c(-c2cc(C(F)(F)F)c(N[C@H]3C[C@@H]4CN(CC5CCOCC5)C[C@@H]4C3)nn2)c1 [Example 57, (3aR,5s,6aS)-N-(6-(2-fluoro-5-methoxyphenyl)-4-(trifluoromethyl)pyridazin-3-yl)-2-((tetrahydro-2H-pyran-4-yl)methyl)octahydro-cyclopenta[c]pyrrol-5-amine]
% ACh maximum at 30 μM
  remaining activity at 30 µM: 3%
  IC50: 278 nM

## F[C@@H]1CCN(c2cc(C(F)(F)F)c(N[C@H]3C[C@@H]4CN(CC5CCOCC5)C[C@@H]4C3)nn2)C1 [Example 140, (3aR,5s,6aS)-N-(6-((R)-3-fluoropyrrolidin-1-yl)-4-(trifluoromethyl)pyridazin-3-yl)-2-((tetrahydro-2H-pyran-4-yl)methyl)octahydro-cyclopenta[c]pyrrol-5-amine]
% ACh maximum at 30 μM
  remaining activity at 30 µM: 2%
  IC50: 9.2 nM

## [2H]C([2H])(C1CCOCC1)N1C[C@H]2C[C@H](Nc3nnc(-c4cnn(C)c4)cc3C(F)(F)F)C[C@H]2C1 [Example 109, (3aR,5s,6aS)-N-(6-(1-methyl-1H-pyrazol-4-yl)-4-(trifluoro-methyl)pyridazin-3-yl)-2-((tetrahydro-2H-pyran-4-yl)methyl-d2)octahydro-cyclopenta[c]pyrrol-5-amine]
% ACh maximum at 30 μM
  remaining activity at 30 µM: 3%
  IC50: 71.8 nM

## Cn1cc2cc(-c3cc(C#N)c(N[C@H]4C[C@@H]5CN(CC6(C#N)CC6)C[C@@H]5C4)nn3)ccc2n1 [Example 160, 3-(((3aR,5s,6aS)-2-((1-cyano-cyclopropyl)methyl)octahydro-cyclopenta[c]pyrrol-5-yl)amino)-6-(2-methyl-2H-indazol-5-yl)pyridazine-4-carbonitrile]
% ACh maximum at 30 μM
  remaining activity at 30 µM: 6%
  IC50: 688 nM
